We go through one molecule from patent publication US8747740B2, “Process and apparatus for generating haloamine biocide” (Hercules Incorporated, priority 2007, dated 2014).

The data set in a line: Stability of chloramine in aqueous solution. To be noted: pH of about 10 to about 11; partially decomposes at higher concentrations or lower pH. The format is physicochemical.

On to `NCl` [chloramine, Monochloramine], for which the “concentration up to which chloramine is stable” value was “up to 1,000 ppm”.
